Data taken from US20250282799A1, “SUBSTITUTED PYRIDO[4,3-d]PYRIMIDINES AS KRAS MODULATORS” (Alterome Therapeutics, Inc., priority 2023, published 2025).

What was measured:
KRAS (G12V)/CRAF = KRAS (G12V)/CRAF (Homo sapiens (Human), UniProt P01116, G12V); experiment: TR-FRET biochemical KRAS:CRAF protein:protein interaction assay, KRAS (G12V); type: binding; conditions: GMPPNP loaded Biotin-KRAS (G12V), FLAG CRAF RBD; read-out: TR-Fret_PPI KRAS (G12V)/CRAF IC50
Experimental: (§1) The effect of test compounds on KRAS and CRAF protein: protein interaction (PPI) was measured by time resolved fluorescence resonance energy transfer (TR-FRET) Ras binding domain (RBD) assay, which uses a signal generated through fluorescent resonance energy transfer between a donor and an acceptor molecule when in close proximity to each other. Interference from buffer, media, etc. is reduced by dual-wavelength detection; the energy pulse from the excitation source is followed by a time delay, which allows interfering short-lived fluorescence to decay (Degorce et al. 2009).
(§2) The KRAS: CRAF PPI assay can be utilized to identify KRAS ‘ON’ state inhibitors, as the KRAS protein is loaded with GMPPNP (a non-hydrolyzable GTP analog), which represents the active KRAS ‘ON’ state. FLAG-tagged CRAF RBD binding to the GMPPNP loaded biotin-tagged KRAS will result in a fluorescence energy transfer from the donor (Tb-anti-FLAG, emission 620 nm) to the acceptor (SA-XL665, emission 665 nm). Disruption of KRAS and CRAF binding will reduce the TR-FRET signal.
(§3) Test compound was dissolved in DMSO to create a 1 mM stock solution. A 45 μL volume of stock solution was transferred to a 384well polypropylene plate. A 3fold, 10point dilution was performed by transferring 15 μL of test compound solution into 30 μL of DMSO.
(§4) Assay buffer A was prepared with […] Hepes, pH7.3, 0.002% Tween 20, 0.1% BSA, […] NaCl, 5 mM MgCl2, and 10 uM GMP-PNP. 4× KRAS Solution was prepared with 80 nM of Biotin-KRAS (G12D/V), GMPPNP loaded or Biotin-KRAS (WT), GMPPNP loaded protein in assay buffer A. 4× Raf RBD Solution was prepared with 400 nM FLAG CRAF RBD in assay buffer A. 2× Detection Mixture was prepared with 2 nM Tb-anti-FLAG antibody and 10 nM and 10 nM SA-XL665 in assay buffer A.
(§5) A volume of 100 nL of 100× test compound working solution or DMSO vehicle control solution was dispensed to each well (duplicate for each concentration) of a 384-well ProxiPlate Plus assay plate. A volume of 2.5 μL of 4× KRAS Solution was added to each well of the assay plate for a final concentration of 20 nM Biotin-KRAS (G12D/V),GMPPNP loaded or 20 nM Biotin-KRAS (WT), GMPPNP. For low control, add 2.5 μL of assay buffer (no KRAS protein). Pre-incubate assay plate for 30 minutes at room temperature. Following pre-incubation of test compound or DMSO with Biotin-KRAS (G12D/V),GMPPNP loaded or Biotin-KRAS (WT),GMPPNP, a volume of 2.5 μL of 4× FLAG cRAF RBD Solution was added to each well of the assay plate for a final concentration of 100 nM FLAG CRAF RBD. The assay plate was subjected to centrifuge at 1000 rpm for 1 minute and pre-incubate assay plate for 150 minutes at room temperature. Following the pre-incubation with FLAG cRAF RBD, a volume of 5 μl of 2× Detection Mixture was added to each well of the assay plate for a final concentration of 1 nM Tb-anti-FLAG and 5 nM SA-XL665. The assay plate was centrifuged at 1000 rpm for 1 minute and incubated for 90 minutes at room temperature. TR-FRET signal was measured on a BioTek Synergy Neo2 microplate reader (excitation at 340 nm, emission at 665 nn and 620 nm).
(§6) TR-FRET ratios were calculated by dividing the acceptor emission value (665 nm) by the donor emission value (620 nm) for each sample.
(§7) Percent inhibition was calculated by multiplying the normalized TR-FRET ratio by 100, where TR-FRET ratio^HIGH was the TR-FRET ratio obtained from wells with 1% DMSO and complete reaction mixture, TR-FRET ratio^LOW was the ratio obtained from wells with 1% DMSO and reaction mixture without KRAS protein and TR-FRET ratio^SAMPLE was the TR-FRET ratio from wells with test compound and complete reaction mixture. The IC50 values were calculated from normalized TR-FRET ratios with the Levenberg-Marquardt 4 parameter fitting procedure.
(§8) This assay quantifies the interaction of a KRAS mutant protein (e.g., G12V) with the CRAF Ras-binding domain (RBD). […]

[1] = test system: KRAS G12V dependent lung adenocarcinoma cell line, NCI-H441; experiment: Cellular pERK (Thr202/Tyr204) FRET/HTRF assay; type: cell-based; conditions: Homo sapiens
How it was run: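 NCI-H441 cells (KRAS G12V) plated overnight at 37 °C, then exposed to compounds for 1 hr at 37 °C, 5% CO2; DMSO as negative control. Lysates read by Eu-cryptate/d2 sandwich FRET (665 nm) for ERK1/2 phosphorylated at Thr202/Tyr204; IC50 from curve fit.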

KRAS (G12D)/CRAF = KRAS (G12D)/CRAF (Homo sapiens (Human), UniProt P01116, G12D); experiment: TR-FRET biochemical KRAS:CRAF protein:protein interaction assay, KRAS (G12D); type: binding; conditions: GMPPNP loaded Biotin-KRAS (G12D), FLAG CRAF RBD; read-out: TR-Fret_PPI KRAS (G12D)/CRAF IC50
Experimental: as §1, §2, §3, §4, §5, §6, §7, §8

[2] = NCI-H441, cellular pERK (Thr202/Tyr204) HTRF, NCI-H441 cells
[3] = NCI-H441, pERK HTRF, NCI-H441 cells (KRAS G12V)

Chain of KRAS (G12V)/CRAF (P01116-2 other isoform, or with tags, fused parts or gaps G12V): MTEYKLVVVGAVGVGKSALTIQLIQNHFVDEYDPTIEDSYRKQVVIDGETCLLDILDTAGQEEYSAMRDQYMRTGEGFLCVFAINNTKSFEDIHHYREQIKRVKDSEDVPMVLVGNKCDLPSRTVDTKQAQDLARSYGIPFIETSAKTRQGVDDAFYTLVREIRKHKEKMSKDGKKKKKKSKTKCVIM
Chain of KRAS (G12D)/CRAF (P01116-2 other isoform, or with tags, fused parts or gaps G12D): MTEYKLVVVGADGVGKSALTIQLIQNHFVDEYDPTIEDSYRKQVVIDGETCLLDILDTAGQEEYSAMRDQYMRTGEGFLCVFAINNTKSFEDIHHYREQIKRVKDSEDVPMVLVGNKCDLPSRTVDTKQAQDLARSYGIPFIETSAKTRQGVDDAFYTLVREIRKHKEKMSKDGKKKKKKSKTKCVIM

Compound	IC50 (KRAS (G12V)/CRAF) [µM]	IC50 [1, 2] [nM]	IC50 (KRAS (G12D)/CRAF) [nM]	IC50 [1, 3] [nM]
[2H]C([2H])(Oc1nc(N2CCOC[C@H]3[C@H](F)[C@H]32)c2c(OC)nc(-c3cc(N)cc4ccc(F)c(C#C)c34)c(F)c2n1)[C@@]12CCCN1C[C@H](F)C2 [Example 222, 5-Ethynyl-6-fluoro-4-(8-fluoro-4-((1S,7S,8S)-8-fluoro-5-oxa-2-azabicyclo[5.1.0]octan-2-yl)-2-(((2R,7aS)-2-fluorotetrahydro-1H-pyrrolizin-7a(5H)-yl)methoxy-d2)-5-methoxypyrido[4,3-d]pyrimidin-7-yl)naphthalen-2-amine]	0.0537	< 50	11.7	–
[2H]C([2H])(Oc1nc(N2CCCC[C@H]3[C@@H](Cl)[C@H]32)c2cnc(-c3cc(N)cc4ccc(F)c(C#C)c34)c(F)c2n1)[C@@]12CCCN1C[C@H](F)C2 [Example 344, 4-(4-((1S,7R,8R)-8-chloro-2-azabicyclo[5.1.0]octan-2-yl)-8-fluoro-2-(((2R,7aS)-2-fluorotetrahydro-1H-pyrrolizin-7a(5H)-yl)methoxy-d2)pyrido[4,3-d]pyrimidin-7-yl)-5-ethynyl-6-fluoronaphthalen-2-amine]	≥ 10	500 to 10000	1930	–
[2H]C([2H])(Oc1nc(N2CCOC[C@H]3[C@@H](Cl)[C@H]32)c2cnc(-c3cc(N)cc4ccc(F)c(C#C)c34)c(F)c2n1)[C@@]12CCCN1C[C@H](F)C2 [Example 247, 4-(4-((1S,7S,8R)-8-chloro-5-oxa-2-azabicyclo[5.1.0]octan-2-yl)-8-fluoro-2-(((2R,7aS)-2-fluorotetrahydro-1H-pyrrolizin-7a(5H)-yl)methoxy-d2)pyrido[4,3-d]pyrimidin-7-yl)-5-ethynyl-6-fluoronaphthalen-2-amine]	3	50 to 500	1390	–
[2H]C([2H])(Oc1nc(N2CCOC[C@@H]3[C@@H](Cl)[C@@H]32)c2cnc(-c3cc(N)cc4ccc(F)c(C#C)c34)c(F)c2n1)[C@@]12CCCN1C[C@H](F)C2 [Example 249, 4-(4-((1R,7R,8R)-8-chloro-5-oxa-2-azabicyclo[5.1.0]octan-2-yl)-8-fluoro-2-(((2R,7aS)-2-fluorotetrahydro-1H-pyrrolizin-7a(5H)-yl)methoxy-d2)pyrido[4,3-d]pyrimidin-7-yl)-5-ethynyl-6-fluoronaphthalen-2-amine]	3	< 50	648	–
[2H]C([2H])(Oc1nc(N2CCCO[C@@H]3[C@@H](Cl)[C@@H]32)c2cnc(-c3cc(N)cc4ccc(F)c(C#C)c34)c(F)c2n1)[C@@]12CCCN1C[C@H](F)C2 [Example 317, 4-(4-((1S,7R,8S)-8-chloro-2-oxa-6-azabicyclo[5.1.0]octan-6-yl)-8-fluoro-2-(((2R,7aS)-2-fluorotetrahydro-1H-pyrrolizin-7a(5H)-yl)methoxy-d2)pyrido[4,3-d]pyrimidin-7-yl)-5-ethynyl-6-fluoronaphthalen-2-amine]	3	50 to 500	3000	–
[2H]C([2H])(Oc1nc(N2CC=CC[C@@H]3[C@@H](F)[C@@H]32)c2cnc(-c3cc(N)cc4cc(F)c(F)c(C#C)c34)c(F)c2n1)[C@@]12CCCN1C[C@H](F)C2 [Example 138, 5-ethynyl-6,7-difluoro-4-(8-fluoro-4-((1R,7S,8R)-8-fluoro-2-azabicyclo[5.1.0]oct-4-en-2-yl)-2-(((2R,7aS)-2-fluorotetrahydro-1H-pyrrolizin-7a(5H)-yl)methoxy-d2)pyrido[4,3-d]pyrimidin-7-yl)naphthalen-2-amine]	≥ 10	500 to 10000	≥ 10000	–
[2H]C([2H])(Oc1nc(N2CCCO[C@H]3[C@H](Cl)[C@H]32)c2cnc(-c3cc(N)cc4ccc(F)c(C#C)c34)c(F)c2n1)[C@@]12CCCN1C[C@H](F)C2 [Example 316, 4-(4-((1R,7S,8R)-8-Chloro-2-oxa-6-azabicyclo[5.1.0]octan-6-yl)-8-fluoro-2-(((2R,7aS)-2-fluorotetrahydro-1H-pyrrolizin-7a(5H)-yl)methoxy-d2)pyrido[4,3-d]pyrimidin-7-yl)-5-ethynyl-6-fluoronaphthalen-2-amine]	0.0512	< 50	14.1	–
[2H]C([2H])(Oc1nc(N2CCOC[C@H]3[C@@H](F)[C@H]32)c2cnc(-c3cc(N)cc4ccc(F)c(C#C)c34)c(F)c2n1)[C@@]12CCCN1C[C@H](F)C2 [Example 225, 5-ethynyl-6-fluoro-4-(8-fluoro-4-((1S,7S,8R)-8-fluoro-5-oxa-2-azabicyclo[5.1.0]octan-2-yl)-2-(((2R,7aS)-2-fluorotetrahydro-1H-pyrrolizin-7a(5H)-yl)methoxy-d2)pyrido[4,3-d]pyrimidin-7-yl)naphthalen-2-amine]	2.91	< 50	264	–
[2H]C([2H])(Oc1nc(N2CCCC[C@@H]3[C@@H](F)[C@@H]32)c2cnc(-c3cc(N)cc4cc(F)c(F)c(C#C)c34)c(F)c2n1)[C@@]12CCCN1C[C@H](F)C2 [Example 15, 5-Ethynyl-6,7-difluoro-4-(8-fluoro-4-((1R,7S,8R)-8-fluoro-2-azabicyclo[5.1.0]octan-2-yl)-2-(((2R,7aS)-2-fluorotetrahydro-1H-pyrrolizin-7a(5H)-yl)methoxy-d2)pyrido[4,3-d]pyrimidin-7-yl)naphthalen-2-amine]	≥ 10	–	≥ 10000	500 to 10000
[2H]C([2H])(Oc1nc(N2CCCC[C@H]3C[C@H]32)c2cnc(-c3cc(N)cc4cc(F)c(F)c(C#C)c34)c(F)c2n1)[C@@]12CCCN1C[C@H](F)C2 [Example 8, 4-(4-((1R,7S)-2-azabicyclo[5.1.0]octan-2-yl)-8-fluoro-2-(((2R,7aS)-2-fluorotetrahydro-1H-pyrrolizin-7a(5H)-yl)methoxy-d2)pyrido[4,3-d]pyrimidin-7-yl)-5-ethynyl-6,7-difluoronaphthalen-2-amine]	0.213	–	27.5	< 50
[2H]C([2H])(Oc1nc(N2CCCC[C@@H]3[C@H](F)[C@@H]32)c2cnc(-c3cc(N)cc4cc(F)c(F)c(C#C)c34)c(F)c2n1)[C@@]12CCCN1C[C@H](F)C2 [Example 14, 5-Ethynyl-6,7-difluoro-4-(8-fluoro-4-((1R,7S,8S)-8-fluoro-2-azabicyclo[5.1.0]octan-2-yl)-2-(((2R,7aS)-2-fluorotetrahydro-1H-pyrrolizin-7a(5H)-yl)methoxy-d2)pyrido[4,3-d]pyrimidin-7-yl)naphthalen-2-amine]	≥ 10	–	≥ 10000	500 to 10000
